Experimental data as given in US20230124361A1, “SMALL MOLECULE STING ANTAGONISTS” (CURADEV PHARMA PVT. LTD., priority 2020, published 2023).
pIC50: −log10 of the molar value.

biological target: T1, STING (Homo sapiens, UniProt Q86WV6, G230A/H232R/R293Q/R71H); assay: Reporter gene expression assay in THP1-Dual cells (IRF pathway Lucia luciferase, 2',3'-cGAMP stimulation); format: cell-based; details: 10 min preincubation, 5 μM 2',3'-cGAMP, 20 hr, IRF reporter QUANTI-Luc, read-out: THP-1 (HAQ) Activity
T1 construct: host or cells: THP1-Dual cells (human THP-1 monocyte line with Lucia/SEAP reporters)
T1 sequence (Q86WV6 whole entry R71H/G230A/H232R/R293Q): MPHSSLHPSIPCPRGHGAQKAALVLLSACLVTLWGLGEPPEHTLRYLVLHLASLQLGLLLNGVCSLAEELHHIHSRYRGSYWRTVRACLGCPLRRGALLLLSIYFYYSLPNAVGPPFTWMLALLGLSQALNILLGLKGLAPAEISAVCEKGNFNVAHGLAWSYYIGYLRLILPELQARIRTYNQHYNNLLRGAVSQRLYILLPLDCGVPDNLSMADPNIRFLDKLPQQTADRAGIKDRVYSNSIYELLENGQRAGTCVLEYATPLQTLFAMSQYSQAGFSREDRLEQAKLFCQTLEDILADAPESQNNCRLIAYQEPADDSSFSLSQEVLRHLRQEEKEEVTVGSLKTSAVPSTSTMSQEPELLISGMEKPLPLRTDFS
In short: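 THP1-Dual cells preincubated 10 min with compound, then stimulated with 5 μM 2′,3′-cGAMP for 20 hr. Secreted Lucia luciferase (IRF reporter) measured in supernatant by luminescence; IC50 reported as ranges (A ≤1 μM, B >1–≤10 μM, C >10 μM).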

| SMILES | pIC50 |
| --- | --- |
| O=C(Nc1ccc2c(c1)OCC(=O)N2Cc1ccc(-n2cncn2)cc1)Nc1ccc2cc[nH]c2c1 [Example 128, 1-(4-(4-(1H-1,2,4-triazol-1-yl)benzyl)-3-oxo-3,4-dihydro-2H-benzo[b][1, 4]oxazin-7-yl)-3-(1H-indol-6-yl)urea] | < 5.00 |
| O=C(NCc1ccco1)Nc1ccc2c(c1)OCC(=O)N2Cc1ccccc1 [Example 130, 1-(4-benzyl-3-oxo-3,4-dihydro-2H-benzo[b][1, 4]oxazin-7-yl)-3-(furan-2-ylmethyl)urea] | < 5.00 |
| O=C(Nc1ccc2c(c1)OCC(=O)N2Cc1ccccc1)Nc1c[nH]nc1-c1ccc(Cl)cc1 [Example 131, 1-(4-benzyl-3-oxo-3,4-dihydro-2H-benzo[b][1, 4]oxazin-7-yl)-3-(3-(4-chlorophenyl)-1H-pyrazol-4-yl)urea] | < 5.00 |
| O=C(Nc1ccc2c(c1)OCC(=O)N2Cc1ccccc1)NC1Cc2ccccc2C1 [Example 136, 1-(4-benzyl-3-oxo-3,4-dihydro-2H-benzo[b][1, 4]oxazin-7-yl)-3-(2,3-dihydro-1H-inden-2-yl)urea] | 5.00 to 6.00 |
| O=C(Nc1ccc2c(c1)OCC(=O)N2Cc1ccccc1)Nc1ccn(-c2ccccc2)n1 [Example 138, 1-(4-benzyl-3-oxo-3,4-dihydro-2H-benzo[b][1, 4]oxazin-7-yl)-3-(1-phenyl-1H-pyrazol-3-yl)urea] | < 5.00 |
| O=C(Nc1ccc2c(c1)OCC(=O)N2Cc1ccc(O)cc1)Nc1ccc2cc[nH]c2c1 [Example 139, 1-(4-(4-hydroxybenzyl)-3-oxo-3,4-dihydro-2H-benzo[b][1, 4]oxazin-7-yl)-3-(1H-indol-6-yl)urea] | 5.00 to 6.00 |
| COC(=O)c1ccccc1CN1C(=O)COc2cc(NC(=O)Nc3ccc4cc[nH]c4c3)ccc21 [Example 140, methyl 2-((7-(3-(1H-indol-6-yl)ureido)-3-oxo-2,3-dihydro-4H-benzo[b][1, 4]oxazin-4-yl)methyl) benzoate] | 5.00 to 6.00 |
| O=C(Nc1ccc2c(c1)OCC(=O)N2Cc1ccccc1)N1CCc2ccccc2C1 [Example 141, N-(4-benzyl-3-oxo-3,4-dihydro-2H-benzo[b][1, 4]oxazin-7-yl)-3,4-dihydro-isoquinoline-2(1H)-carboxamide] | 5.00 to 6.00 |
| O=C(Nc1ccc2c(c1)NCC2)Nc1ccc2c(c1)OCC(=O)N2Cc1ccccc1 [Example 142, 1-(4-benzyl-3-oxo-3,4-dihydro-2H-benzo[b][1, 4]oxazin-7-yl)-3-(indolin-6-yl)urea] | 5.00 to 6.00 |

Results, then the molecule that gave them:

| pIC50 | SMILES |
| --- | --- |
| ≥ 6.00 | O=C(Nc1ccc2c(c1)OCC(=O)N2Cc1ccc2nonc2c1)Nc1ccc2cc[nH]c2c1 [Example 129, l-(4-(benzo[c][1,2,5]oxadiazol-5-ylmethyl)-3-oxo-3,4-dihydro-2H-benzo[b][1,4]oxazin-7-yl)-3-(1H-indol-6-yl)urea] |
| 5.00 to 6.00 | O=C(NCc1cc[nH]c1)Nc1ccc2c(c1)OCC(=O)N2Cc1ccccc1 [Example 132, 1-((1H-pyrrol-3-yl)methyl)-3-(4-benzyl-3-oxo-3,4-dihydro-2H-benzo[b][1, 4]oxazin-7-yl)urea] |
| 5.00 to 6.00 | O=C(Nc1ccc2c(c1)CCCC2)Nc1ccc2c(c1)OCC(=O)N2Cc1ccccc1 [Example 133, 1-(4-benzyl-3-oxo-3,4-dihydro-2H-benzo[b][1, 4]oxazin-7-yl)-3-(5,6,7,8-tetrahydro-naphthalen-2-yl)urea] |
| 5.00 to 6.00 | CC(C)(C)c1nc(CN2C(=O)COc3cc(NC(=O)Nc4ccc5cc[nH]c5c4)ccc32)no1 [Example 134, l-(4-((5-(tert-butyl)-1,2,4-oxadiazol-3-yl)methyl)-3-oxo-3,4-dihydro-2H-benzo[b][, 4]oxazin-7-yl)-3-(1H-indol-6-yl)urea] |
| 5.00 to 6.00 | O=C(Nc1ccc2c(c1)OCC(=O)N2Cc1ccccc1)NC1CCc2ccccc2C1 (centres unmarked) [Example 135, 1-(4-benzyl-3-oxo-3,4-dihydro-2H-benzo[b][1, 4]oxazin-7-yl)-3-(1,2,3,4-tetrahydro-naphthalen-2-yl)urea] |
